# Like-named read-outs stand apart in the source and are kept apart here.
# What was measured:
# TYK2 = target: T1, TYK2 (Homo sapiens, UniProt P29597); assay: TYK2 kinase activity, microfluidic assay (Caliper EZ Reader II); assay type: biochemical; settings: TYK2 1 nM, 1 mM ATP
# T1 construct: purchased Carna Biosciences
# Protocol: Testing for JAK1, JAK2 and TYK2 Kinase Activities
# JAK activity was determined in the reaction buffer 50 mM HEPES, 0.01% Brij35, 10 mM MgCl2, 2 mM DTT by a microfluidic assay. The phosphorylation of a FAM labeled peptide substrate was monitored in the Caliper EZ Reader II (Perkin Elmer). The assay condition for each batch of enzyme (Carna Biosciences) was optimized to obtain 10% conversion rate of peptide substrate.
# The test compounds were dissolved in DMSO to a stock concentration of 10 mM. Three-fold serially diluted compounds with top concentration of 5 μM were pre-incubated with JAK1, JAK2 or TYK2 for 10 min at ambient temperature. The final DMSO concentration of assay mixture was 1%. […] The reaction was stopped by adding 50 mM EDTA.
# The percent inhibition was calculated by the following formula:
# [formula] • wherein • Conversion %_max=the conversion rate in the positive well without addition of compound • Conversion %_sample=the conversion rate of test compounds • Conversion %_min=the conversion rate in the well without addition of enzyme
# The dose-response (percent inhibition) curve was plotted and IC50 values were determined by GraphPad software.
# [1] = target: T2, Ba/F3-FL-TYK2-P760L cells (Homo sapiens, UniProt P29597, P760L, cells depend on it); assay: Anti-proliferative assay, Ba/F3-FL-TYK2-P760L cells (Cell-Titer Glo); assay type: cell-based; settings: 72 h, read-out: BaF3-FL-T2P760L IC50
# T2 construct: BaF3-FL-T2P760L (nM)
# T2 sequence (P29597 whole entry P760L): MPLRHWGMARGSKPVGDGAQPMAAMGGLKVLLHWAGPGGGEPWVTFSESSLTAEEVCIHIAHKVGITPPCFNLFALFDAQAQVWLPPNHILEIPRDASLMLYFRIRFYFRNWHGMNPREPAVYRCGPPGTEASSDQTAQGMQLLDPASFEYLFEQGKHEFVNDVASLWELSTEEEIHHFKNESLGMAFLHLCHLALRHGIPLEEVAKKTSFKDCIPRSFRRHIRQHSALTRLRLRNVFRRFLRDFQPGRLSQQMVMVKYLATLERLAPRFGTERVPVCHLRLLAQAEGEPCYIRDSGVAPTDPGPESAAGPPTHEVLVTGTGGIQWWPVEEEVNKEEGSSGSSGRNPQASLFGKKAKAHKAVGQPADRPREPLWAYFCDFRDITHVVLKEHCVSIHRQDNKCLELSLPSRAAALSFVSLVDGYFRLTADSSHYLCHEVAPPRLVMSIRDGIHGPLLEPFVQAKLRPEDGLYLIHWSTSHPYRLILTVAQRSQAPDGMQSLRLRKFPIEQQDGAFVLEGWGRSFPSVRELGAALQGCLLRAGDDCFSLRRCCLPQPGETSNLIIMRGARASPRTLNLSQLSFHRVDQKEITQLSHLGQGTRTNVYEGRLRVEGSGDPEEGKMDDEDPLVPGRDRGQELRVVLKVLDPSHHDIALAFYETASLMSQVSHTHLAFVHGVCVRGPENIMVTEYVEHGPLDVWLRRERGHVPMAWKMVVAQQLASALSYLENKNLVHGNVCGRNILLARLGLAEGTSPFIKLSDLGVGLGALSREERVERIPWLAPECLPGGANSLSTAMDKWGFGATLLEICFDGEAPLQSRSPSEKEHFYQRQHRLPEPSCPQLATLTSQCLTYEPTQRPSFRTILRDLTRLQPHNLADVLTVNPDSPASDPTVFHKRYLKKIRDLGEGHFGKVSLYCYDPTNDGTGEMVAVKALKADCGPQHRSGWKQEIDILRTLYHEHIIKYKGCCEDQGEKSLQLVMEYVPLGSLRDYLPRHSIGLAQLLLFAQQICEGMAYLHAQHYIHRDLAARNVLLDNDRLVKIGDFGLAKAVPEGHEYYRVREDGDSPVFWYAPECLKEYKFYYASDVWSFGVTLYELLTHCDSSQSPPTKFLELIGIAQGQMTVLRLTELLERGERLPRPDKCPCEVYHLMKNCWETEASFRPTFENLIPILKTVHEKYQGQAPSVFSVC
# Method in brief: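 Compound exposure ran 72 h at 37 °C in 5% CO2 across nine 3-fold concentrations from a 20 μM top dose, added 24 h after seeding 2000 cells/well.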
# [2] = Microsomal metabolic stability assay; assay type: in vitro ADME; settings: pH 7.4, 0.5 mg/mL protein, 1 μM compound
# Method in brief: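 Parent loss was tracked by LC/MS/MS at 0, 5, 15, 30 and 45 min, with half-life derived from the ln(% remaining)–time slope. Incubation at 37 °C, pH 7.4 phosphate/EDTA buffer: 0.5 mg/mL microsomes, 1 μM compound, NADPH-regenerated (2 mM).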
# TYK2-JH2 domain = target: T3, TYK2-JH2 domain (Homo sapiens, UniProt P29597); assay: Binding activity test for JH2 domain of TYK2 (Tb-antibody/tracer FRET); settings: for JAK1/TYK2 selectivity: ratio JAK1-JH2 IC50 / TYK2-JH2 IC50
# T3 construct: IC50 on JH2 domain activity (nM)
# T3 sequence (P29597 589-875 limits assumed): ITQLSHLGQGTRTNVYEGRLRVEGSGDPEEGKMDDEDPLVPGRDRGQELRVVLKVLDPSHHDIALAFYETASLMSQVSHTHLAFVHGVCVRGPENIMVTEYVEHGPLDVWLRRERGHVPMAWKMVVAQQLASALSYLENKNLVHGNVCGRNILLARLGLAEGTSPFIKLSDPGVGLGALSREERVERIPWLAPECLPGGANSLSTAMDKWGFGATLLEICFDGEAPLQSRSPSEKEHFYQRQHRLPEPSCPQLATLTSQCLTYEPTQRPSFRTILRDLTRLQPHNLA
# Method in brief: (§1)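 FRET read-out after 60 min at 25° C plus overnight at 4° C; tracer displacement detected via Tb-labelled antibody on the JH2 domain. Dose-response used 11 points at 3-fold dilution.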
# [3] = Plasma protein binding by equilibrium dialysis; assay type: in vitro ADME; settings: human plasma, equilibrium dialysis 5 hours at 37° C.; read-out: % Bound (human) (converted)
# Protocol: Plasma Protein Binding by Equilibrium Dialysis
# Aliquots of test compound stock solution and warfarin stock solution were spiked into plasma to give the matrix solutions with theoretical concentrations of test compound at 0.2 and 2 μM or warfarin at 2 μM. Immediately transfer 50 μL of the spiked plasma solution suspension to a 96-well plate to act as T=0 control sample. Assemble the dialysis set up following the manufacturer's instructions. Load cells with 150 μL of plasma sample and dialyzed against equal volume of dialysis buffer (PBS). The assay is performed in duplicate. Cover the unit with gas permeable lid and incubate for 5 hours at 37° C. at 100 rpm in a constant temperature shaking box. At the end of incubation, remove lid and pipette 50 μL of post-dialysis samples from both buffer and plasma solution chambers into separated 96-well plate for analysis, respectively. Add 50 μL of plasma solution to the buffer samples, and an equal volume of PBS to the collected plasma solution samples. Shake the plate at 1000 rpm for 2 minutes and add 600 μL of 50% ACN/MeOH containing an appropriate internal standard (IS) to precipitate protein and release compound. Vortex at 1000 rpm for 10 minutes. Centrifuge for 10 minutes at 4000 rpm. Then transfer 75 μL of the supernatant to new 96-well plates for analysis. Add 150 μL of distilled water to each sample and mix for analysis by LC-MS/MS.
# The free rate (% Unbound), binding rate (% Bound), and recovery rate (% Recovery) of the compound are calculated as follows: […]
# [4] = Hepatocytes metabolic stability assay; assay type: in vitro ADME; settings: cryopreserved hepatocytes, human hepatocytes, 1.0×10^6 cells/mL
# Protocol: Hepatocytes Metabolic Stability Assay
# The vials of cryopreserved hepatocytes were removed from the liquid nitrogen container and immediately immersed in a 37° C. water bath for approximately 2 min. The melted ice pellets were transferred into tubes containing 50 mL of pre-warmed thawing medium and mixed well by gently inverting the tubes, and then centrifuged at 500 rpm for 3 minutes at room temperature. The supernatants were discarded, and cell pellets were re-suspended by adding appropriate volumes of pre-warmed incubation medium. The cells viability of each species was determined using Trypan Blue exclusion. Add 50 μL of pre-warmed 2× dosing solution to the wells designated for different time points. Then 50 μL of cells suspension (2×10^6 cells/mL) were added into appropriate wells at corresponding time points of T15, T30, T60, T120. Start timing and put the plate in an incubator at 37° C. For TO sample, add 300 μL of ACN containing internal standard to the wells, mix gently, then add 50 μL of pre-warmed hepatocytes solution (2×10^6 cells/mL). The concentration of test compound was 1 μM and 1.0×10^6 cells/mL in the final incubation. At each corresponding time point, test and control compounds reaction samples were stopped by adding 300 μL acetonitrile containing internal standard. All sample plates were thoroughly mixed and centrifuged at 5000×g for 15 minutes. The supernatants were diluted at ratio of 1:1 with ultra-pure water for test and positive controls. Then submitted for LC-MS/MS analysis.
# The analyte/internal standard peak area ratios were converted to percentage remaining with the following equation: […]
# The in vitro elimination constant, k of test compounds and control compounds were calculated from a log linear plot of % Remaining versus time, then the half-life (T1/2), the estimation of the in vitro hepatic intrinsic clearance (CLint) values were calculated from substrate disappearance rate in hepatocytes incubation: […]
# JAK1-JH2 domain = target: T4, JAK1-JH2 domain (Homo sapiens, UniProt P23458); assay: Binding activity test for JH2 domain of JAK1 (Tb-antibody/tracer FRET)
# T4 construct: IC50 on JH2 domain activity (nM)
# T4 sequence (P23458 583-855 limits assumed): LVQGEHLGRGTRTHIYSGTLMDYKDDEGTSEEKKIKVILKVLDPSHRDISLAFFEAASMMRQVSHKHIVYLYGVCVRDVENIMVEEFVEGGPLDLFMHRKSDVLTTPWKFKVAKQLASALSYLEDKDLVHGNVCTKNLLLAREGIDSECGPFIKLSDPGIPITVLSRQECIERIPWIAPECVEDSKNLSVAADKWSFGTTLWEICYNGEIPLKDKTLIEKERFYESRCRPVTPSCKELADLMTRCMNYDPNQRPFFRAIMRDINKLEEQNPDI
# Method in brief: as §1
# pSTAT1 = assay: Phosphorylation inhibition of STAT in human whole blood, IFN-alpha stimulated (flow cytometry); assay type: cell-based; settings: 20 min; human whole blood, IFN-alpha 20 mins, CD3 cells; read-out: IC50 on pSTAT1 inhibition in h WB
# Protocol: Phosphorylation Inhibition of STAT in Human PBMC and Human Whole Blood Testing:
# The inhibitory potential of test articles in human PBMC and human whole blood assay was evaluated by the method of flow cytometry.
# IFN-alpha will activate JAK1 and TYK2 kinase in T cells by binding to IFN receptors, and then lead to phosphorylation of STAT1 and STAT2. The phosphorylated STAT1 enter nuclear and promote transcription and expression of IFN-gamma. To evaluate the efficacy of TYK2i in T cells, freshly prepared human PBMC or freshly collected human whole blood will be stimulated with certain unit of human IFN-alpha (Universal Type I IFN(1MU), R&D, 11200-2) for 20 mins in incubator. After stimulation, fix cells with Phosflow™ Fix Buffer I (BD, 557870), and then collect fixed cells by centrifugation (500 g, 8 min). Wash cells once with pre-cooled PBS, and then permeabilize cells with cold Perm Buffer III buffer (BD, 558050) for 45 mins on ice. Collect cells by centrifugation (600 g, 8 min) and washed twice with cold PBS. Stain cells with anti-human CD3 (FITC Mouse Anti-Human CD3, BD, 555332) and anti-pSTAT1_Y701(Alexa Fluor 647 Mouse Anti-Stat1 (pY701), BD, 612597) antibodies. Detect pSTAT1 by flow cytometry (CytoFlex S) and analyze data with FlowJo and GraphPad Prism 8 software. IC50 values of test articles were determined using 4-parameter logistic equation.
# [5] = dog liver microsomes, read-out: Dog LM Clint
# [6] = dog liver microsomes, read-out: Dog LM T½
# [7] = human liver microsomes, read-out: Human LM Clint
# [8] = human liver microsomes, read-out: Human LM T½
# [9] = rat liver microsomes, read-out: Rat LM Clint
# [10] = rat liver microsomes, read-out: Rat LM T½
# T1 sequence (P29597 whole entry): as the sequence (P29597 whole entry P760L) above, with L760P counted along it
Structure (SMILES),GI50 [1] [nM],IC50 (TYK2-JH2 domain) [nM],fraction unbound at 5 h [3],JAK1/TYK2 selectivity (TYK2-JH2 domain),IC50 (JAK1-JH2 domain) [nM],further results
"CNC(=O)c1nnc(NC(=O)C2CC2)cc1Nc1cccc2ccn(C)c(=O)c12 [Example 24, 6-(Cyclopropanecarboxamido)-N-methyl-4-((2-methyl-1-oxo-1,2-dihydroisoquinolin-8-yl)amino)pyridazine-3-carboxamide]",1390,,,,,IC50 (TYK2): > 5000 nM
"[2H]C([2H])([2H])NC(=O)c1cnc(NC(=O)C2CC2)cc1Nc1ccc2cnn(C([2H])([2H])C([2H])([2H])[2H])c2c1OC([2H])([2H])[2H] [Example 134, 6-(Cyclopropanecarboxamido)-4-((1-(ethyl-d5)-7-(methoxy-d3)-1H-indazol-6-yl)amino)-N-(methyl-d3)nicotinamide]",61.4,,0.049,,,CLint scaled at 1 μM ([4]; read-out: Human hepatocyte Clint(liver)): 18 mL/min/kg; half-life at 1 μM ([4]; read-out: Human hepatocyte stability T1/2): 1.64 h
"[2H]C([2H])([2H])NC(=O)c1cnc(NC(=O)C2CC2)cc1Nc1cn(C)c2c(F)cn(CC(F)F)c(=O)c12 [Example 158, 6-(Cyclopropanecarboxamido)-4-((5-(2,2-difluoroethyl)-7-fluoro-1-methyl-4-oxo-4,5-dihydro-1H-pyrrolo[3,2-c]pyridin-3-yl)amino)-N-(methyl-d3)nicotinamide]",68.4,0.948,0.039,,,"microsomal CLint at 1 μM [2, 5]: < 7.4 µL/min/mg; half-life at 1 μM [2, 6]: > 3.11 h; microsomal CLint at 1 μM [2, 7]: 15.2 µL/min/mg; half-life at 1 μM [2, 8]: 1.52 h; microsomal CLint at 1 μM [2, 9]: 26.4 µL/min/mg; half-life at 1 μM [2, 10]: 0.875 h"
"[2H]C([2H])([2H])NC(=O)c1cnc(NC(=O)C2CC2)cc1Nc1csc2ncn(CC)c(=O)c12 [Example 216, 6-(Cyclopropanecarboxamido)-4-((3-ethyl-4-oxo-3,4-dihydrothieno[2,3-d]pyrimidin-5-yl)amino)-N-(methyl-d3)nicotinamide]",181,0.525,0.041,,,
"[2H]C([2H])([2H])NC(=O)c1cnc(NC(=O)C2CC2)cc1Nc1ccn2ncc(CO)c2c1OC [Example 225, 6-(Cyclopropanecarboxamido)-4-((3-(hydroxymethyl)-4-methoxypyrazolo[1,5-a]pyridin-5-yl)amino)-N-(methyl-d3)nicotinamide]",565,0.868,0.346,17.5,15.2,
"CCn1ncc2ccc(Nc3cc(NC(=O)C4CC4)ncc3C(=O)NC)c(OC)c21 [Example 228, 6-(Cyclopropanecarboxamido)-4-((1-ethyl-7-methoxy-1H-indazol-6-yl)amino)-N-methylnicotinamide]",29.3,0.288,0.04,22.5,6.48,IC50 (pSTAT1): 245 nM

# The remaining molecules from weak to strong by GI50 [1], led by results:
GI50 [1] [nM],IC50 (TYK2-JH2 domain) [nM],fraction unbound at 5 h [3],JAK1/TYK2 selectivity (TYK2-JH2 domain),IC50 (JAK1-JH2 domain) [nM],Structure (SMILES),further results
221,1.46,0.126,38.8,56.5,"[2H]C([2H])([2H])NC(=O)c1cnc(NC(=O)C2CC2)cc1Nc1ccn2ncc(COC)c2c1OC [Example 226, 6-(Cyclopropanecarboxamido)-4-((4-methoxy-3-(methoxymethyl)pyrazolo[1,5-a]pyridin-5-yl)amino)-N-(methyl-d3)nicotinamide]",
144,0.293,0.286,,,"[2H]C([2H])([2H])NC(=O)c1cnc(NC(=O)C2CC2)cc1Nc1nn(C)c2ccn(CC(F)(F)F)c(=O)c12 [Example 53, 6-(Cyclopropanecarboxamido)-N-(methyl-d3)-4-((1-methyl-4-oxo-5-(2,2,2-trifluoroethyl)-4,5-dihydro-1H-pyrazolo[4,3-c]pyridin-3-yl)amino)nicotinamide]",
77.5,,,,,"[2H]C([2H])([2H])NC(=O)c1cnc(Nc2cccc(C#N)n2)nc1Nc1cccc(-c2ncn(C)n2)c1OC [Example 21, 2-[(6-Cyano-2-pyridyl)amino]-4-[2-methoxy-3-(1-methyl-1,2,4-triazol-3-yl)anilino]-N-(trideuteriomethyl)pyrimidine-5-carboxamide]","IC50 (TYK2): > 5000 nM; microsomal CLint at 1 μM [2, 5]: 26.8 µL/min/mg; half-life at 1 μM [2, 6]: 0.861 h; microsomal CLint at 1 μM [2, 7]: 6.42 µL/min/mg; half-life at 1 μM [2, 8]: 3.6 h; microsomal CLint at 1 μM [2, 9]: 7.4 µL/min/mg; half-life at 1 μM [2, 10]: 3.12 h"

# — patent publication US20250115597A1, “TYK2 INHIBITORS AND COMPOSITIONS AND METHODS THEREOF” (LYNK PHARMACEUTICALS CO. LTD., priority 2021, published 2025)
